Laboratory results as given in the supplement of paper PMC10307832.

Experiments:
Assay in all cases: relative viability (nuclei count vs DMSO), 5 days (fraction); higher = more cells survive
[1] = tested on: NCI-H1915
Outline: (§1)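 Each reported value is a median over duplicate plates. It expresses relative viability: treated-well nuclei count divided by vehicle-well nuclei count. Lung cancer cell lines in 1536-well plates were dosed by pin tool a day after seeding, alone with one drug or with a fixed anchor-drug dose plus five library-drug doses (not always all listed) in √10 steps, and nuclei were counted after 5 days.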

[2] = tested on: NCI-H661
Outline: as §1

[3] = tested on: NCI-H1355
Outline: as §1

[4] = tested on: NCI-H3122
Outline: as §1

[5] = tested on: NCI-H1563
Outline: as §1

[6] = tested on: NCI-H322M
Outline: as §1

[7] = tested on: SW 900
Outline: as §1

[8] = tested on: NCI-H460
Outline: as §1

[9] = tested on: NCI-H1755
Outline: as §1

[10] = tested on: LXF-289
Outline: as §1

[11] = tested on: NCI-H727
Outline: as §1

[12] = tested on: NCI-H441
Outline: as §1

[13] = tested on: NCI-H1792
Outline: as §1

[14] = tested on: SK-MES-1
Outline: as §1

[15] = tested on: NCI-H1651
Outline: as §1

[16] = tested on: NCI-H520
Outline: as §1

[17] = tested on: LCLC-103H
Outline: as §1

[18] = tested on: RERF-LC-KJ
Outline: as §1

[19] = tested on: NCI-H2347
Outline: as §1

[20] = tested on: NCI-H522
Outline: as §1

[21] = tested on: PC-14
Outline: as §1

[22] = tested on: NCI-H596
Outline: as §1

With `CCN(CC)CCCCNc1ncc2cc(-c3cc(OC)cc(OC)c3)c(NC(=O)NC(C)(C)C)nc2n1` + CCNC(=O)c1noc(-c2cc(C(C)C)c(O)cc2O)c1-c1ccc(CN2CCOCC2)cc1 [Luminespib] (partner 0.01 µM) the relative viability ([1]; first compound 0.01 µM) was 0.885, the relative viability ([1]; first compound 0.03162 µM) was 0.863 and the relative viability ([1]; first compound 0.1 µM) was 1.02. It also gave a relative viability ([1]; first compound 0.3162 µM) of 0.932, a relative viability ([1]; first compound 1 µM) of 0.711 and a relative viability ([2]; first compound 0.01 µM) of 0.922. The relative viability ([2]; first compound 0.03162 µM) was 0.964, the relative viability ([2]; first compound 0.1 µM) was 0.968 and the relative viability ([2]; first compound 0.3162 µM) was 0.982. The relative viability ([2]; first compound 1 µM) was 0.925, the relative viability ([3]; first compound 0.01 µM) was 0.795 and the relative viability ([3]; first compound 0.03162 µM) was 0.824. It also gave a relative viability ([3]; first compound 0.1 µM) of 0.704, a relative viability ([3]; first compound 0.3162 µM) of 0.738 and a relative viability ([3]; first compound 1 µM) of 0.649. For the same molecule, the relative viability ([4]; first compound 0.01 µM) was 0.0914, the relative viability ([4]; first compound 0.03162 µM) was 0.082 and the relative viability ([4]; first compound 0.1 µM) was 0.112. For the same molecule, the relative viability ([4]; first compound 0.3162 µM) was 0.0822, the relative viability ([4]; first compound 1 µM) was 0.127 and the relative viability ([5]; first compound 0.01 µM) was 0.537. For the same molecule, the relative viability ([5]; first compound 0.03162 µM) was 0.532, the relative viability ([5]; first compound 0.1 µM) was 0.549 and the relative viability ([5]; first compound 0.3162 µM) was 0.597. The relative viability ([5]; first compound 1 µM) was 0.545, the relative viability ([6]; first compound 0.01 µM) was 0.884 and the relative viability ([6]; first compound 0.03162 µM) was 0.854. For the same molecule, the relative viability ([6]; first compound 0.1 µM) was 0.859, the relative viability ([6]; first compound 0.3162 µM) was 0.988 and the relative viability ([6]; first compound 1 µM) was 0.799. It also gave a relative viability ([7]; first compound 0.01 µM) of 0.172, a relative viability ([7]; first compound 0.03162 µM) of 0.182 and a relative viability ([7]; first compound 0.3162 µM) of 0.15. It also gave a relative viability ([7]; first compound 1 µM) of 0.188, a relative viability ([8]; first compound 0.01 µM) of 0.0378 and a relative viability ([8]; first compound 0.03162 µM) of 0.0357. The relative viability ([8]; first compound 0.1 µM) was 0.0341, the relative viability ([8]; first compound 0.3162 µM) was 0.0358 and the relative viability ([8]; first compound 1 µM) was 0.0473. For the same molecule, the relative viability ([9]; first compound 0.01 µM) was 0.455, the relative viability ([9]; first compound 0.03162 µM) was 0.694 and the relative viability ([9]; first compound 0.1 µM) was 0.458. It also gave a relative viability ([9]; first compound 0.3162 µM) of 0.606, a relative viability ([9]; first compound 1 µM) of 0.44 and a relative viability ([10]; first compound 0.01 µM) of 0.727. The relative viability ([10]; first compound 0.03162 µM) was 0.668, the relative viability ([10]; first compound 0.1 µM) was 0.699 and the relative viability ([10]; first compound 0.3162 µM) was 0.801. For the same molecule, the relative viability ([10]; first compound 1 µM) was 0.577, the relative viability ([11]; first compound 0.01 µM) was 0.251 and the relative viability ([11]; first compound 0.03162 µM) was 0.323. It also gave a relative viability ([11]; first compound 0.1 µM) of 0.28, a relative viability ([11]; first compound 0.3162 µM) of 0.278 and a relative viability ([11]; first compound 1 µM) of 0.327. It also gave a relative viability ([12]; first compound 0.01 µM) of 0.313, a relative viability ([12]; first compound 0.03162 µM) of 0.422 and a relative viability ([12]; first compound 0.1 µM) of 0.344. It also gave a relative viability ([12]; first compound 0.3162 µM) of 0.353, a relative viability ([12]; first compound 1 µM) of 0.362 and a relative viability ([13]; first compound 0.01 µM) of 0.38. It also gave a relative viability ([13]; first compound 0.03162 µM) of 0.388, a relative viability ([13]; first compound 0.1 µM) of 0.536 and a relative viability ([13]; first compound 0.3162 µM) of 0.37. The relative viability ([13]; first compound 1 µM) was 0.282, the relative viability ([14]; first compound 0.01 µM) was 0.97 and the relative viability ([14]; first compound 0.03162 µM) was 0.762. It also gave a relative viability ([14]; first compound 0.1 µM) of 0.832, a relative viability ([14]; first compound 0.3162 µM) of 0.798 and a relative viability ([14]; first compound 1 µM) of 0.576. It also gave a relative viability ([15]; first compound 0.01 µM) of 0.886, a relative viability ([15]; first compound 0.03162 µM) of 0.875 and a relative viability ([15]; first compound 0.1 µM) of 0.779. The relative viability ([15]; first compound 0.3162 µM) was 1.33, the relative viability ([15]; first compound 1 µM) was 0.781 and the relative viability ([16]; first compound 0.01 µM) was 0.203. The relative viability ([16]; first compound 0.03162 µM) was 0.228, the relative viability ([16]; first compound 0.1 µM) was 0.229 and the relative viability ([16]; first compound 0.3162 µM) was 0.289. For the same molecule, the relative viability ([16]; first compound 1 µM) was 0.207, the relative viability ([17]; first compound 0.01 µM) was 1.07 and the relative viability ([17]; first compound 0.03162 µM) was 1.06. It also gave a relative viability ([17]; first compound 0.1 µM) of 0.924, a relative viability ([17]; first compound 0.3162 µM) of 1.01 and a relative viability ([17]; first compound 1 µM) of 0.739. It also gave a relative viability ([18]; first compound 0.01 µM) of 1.24, a relative viability ([18]; first compound 0.03162 µM) of 1.21 and a relative viability ([18]; first compound 0.1 µM) of 1.84. For the same molecule, the relative viability ([18]; first compound 0.3162 µM) was 1.35, the relative viability ([18]; first compound 1 µM) was 1.27 and the relative viability ([19]; first compound 0.01 µM) was 0.675. The relative viability ([19]; first compound 0.03162 µM) was 0.341, the relative viability ([19]; first compound 0.1 µM) was 0.447 and the relative viability ([19]; first compound 0.3162 µM) was 0.372. For the same molecule, the relative viability ([19]; first compound 1 µM) was 0.526, the relative viability ([20]; first compound 0.01 µM) was 1.14 and the relative viability ([20]; first compound 0.03162 µM) was 1.08. It also gave a relative viability ([20]; first compound 0.1 µM) of 1.15, a relative viability ([20]; first compound 0.3162 µM) of 1.13 and a relative viability ([20]; first compound 1 µM) of 1.11. The relative viability ([21]; first compound 0.01 µM) was 0.138, the relative viability ([21]; first compound 0.03162 µM) was 0.126 and the relative viability ([21]; first compound 0.1 µM) was 0.176. For the same molecule, the relative viability ([21]; first compound 0.3162 µM) was 0.141, the relative viability ([21]; first compound 1 µM) was 0.138 and the relative viability ([22]; first compound 0.01 µM) was 1.03. It also gave a relative viability ([22]; first compound 0.03162 µM) of 1.05, a relative viability ([22]; first compound 0.1 µM) of 1.02 and a relative viability ([22]; first compound 0.3162 µM) of 1.01. It also gave a relative viability ([22]; first compound 1 µM) of 0.621.
